In ChEMBL document CHEMBL1201862, “PubChem BioAssay data set” (2004):
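Tested at 5 concentrations; 48 h exposure; 96-well plates; endpoints linearly interpolated, else capped at highest concentration. GI50 is the concentration that inhibits growth by half.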 Calls of active or inactive are those of the source. Rule as the data show it: active = GI50 up to about 1.1 µM and inactive = higher.

What was measured:
Assay in all cases: NCI anticancer screen, dose series, 48 h
NCI/ADR-RES = tested on: NCI/ADR-RES
HOP-62 = tested on: HOP-62
MDA-MB-435 = tested on: MDA-MB-435
DMS-273 = tested on: DMS-273
Malme-3M = tested on: Malme-3M
MDA-N = tested on: MDA-N
LOX IMVI = tested on: LOX IMVI
KM12 = tested on: KM12
BT-549 = tested on: BT-549
786-0 = tested on: 786-0
T47D = tested on: T47D
KM-20L2 = tested on: KM-20L2
LXFL 529 = tested on: LXFL 529
SNB-78 = tested on: SNB-78
M19-MEL = tested on: M19-MEL

Measured: GI50

CN(C)CCCCN1CCc2c(n(C)c3ccccc23)C1=O
inactive: NCI/ADR-RES 39.4 µM | HOP-62 51.3 µM | MDA-MB-435 17.5 µM | DMS-273 > 66.7 µM | Malme-3M 21.7 µM | MDA-N 13.4 µM | LOX IMVI 25.9 µM | KM12 68.7 µM | BT-549 > 37.8 µM | 786-0 61.1 µM | T47D 23.4 µM | KM-20L2 33 µM | LXFL 529 19.4 µM | SNB-78 > 100 µM | M19-MEL 38 µM
